Test results from US20220401564A1 (DANA-FARBER CANCER INSTITUTE, INC., priority 2019, published 2022).

Assays:
VHL = target: T1, VHL (Homo sapiens, UniProt P40337); assay: Cellular VHL engagement assay (BRD4BD2-GFP / mCherry reporter cells); type: cell-based; conditions: with 250 nM AT1, 5 h
T1 construct: Cells stably expressing the BRD4BD2-GFP with mCherry reporter (40) were seeded; endogenous in cells
Protocol: Cells stably expressing the BRD4BD2-GFP with mCherry reporter (40) were seeded at 30-50% confluency in 384-well plates with 50 μL per well of FluoroBrite™ DMEM media (Thermo Fisher Scientific, A18967) supplemented with 10% FBS a day before compound treatment. Compounds and 250 nM AT1((2S,4R)-1-(2R)-2-Acetamido-3-[[6-[2-[(6S)-4-(4-chlorophenyl)-2,3,9-trimethyl-6H-thieno[3,2-f][1,2,4]triazolo[4,3-a][1,4]diazepin-6-yl]acetamido]hexyl]thio]-3-methylbutanoyl]-4-hydroxy-N-[4-(4-methylthiazol-5-yl)benzyl)pyrrolidinine-2-carboxamide) were dispensed using a D300e Digital Dispenser (HP), normalized to 0.5% DMSO, and incubated with the cells for 5 h. The assay plate was imaged immediately using an Acumen® High Content Imager (TTP Labtech) with 488 nm and 561 nm lasers in a […] grid per well format. The resulting images were analyzed using CellProfiler™.
A series of image analysis steps (an ‘image analysis pipeline’) was constructed. First, the red and green channels were aligned and cropped to target the middle of each well (to avoid analysis of the heavily clumped cells at the edges). A background illumination function was calculated for both red and green channels of each well individually and subtracted to correct for illumination variations across the 384-well plate from various sources of error. An additional step was then applied to the green channel to suppress the analysis of large auto fluorescent artifacts and enhance the analysis of cell specific fluorescence by way of selecting for objects under a given size (30 A.U.) and with a given shape (speckles). mCherry-positive cells were then identified in the red channel by filtering for objects 8-60 pixels in diameter and by using intensity to distinguish between clumped objects. The green channel was then segmented into GFP positive and negative areas and objects were labeled as GFP positive if at least 40% of it overlapped with a GFP positive area. The fraction of GFP-positive cells/mCherry-positive cells in each well was then calculated, and the green and red images were rescaled for visualization.

HDAC3 [1] = target: T2, HDAC3 (Homo sapiens, UniProt O15379); assay: Change in cellular protein abundance (TMT proteomics) in Kelly cells; type: cell-based; set-up: relative change in relative protein abundance with treatment of Kelly cells; endogenous in cells; host or cells: Kelly cells
Protocol: (§1) Lysis buffer (8 M Urea, 50 mM NaCl, 50 mM 4-(2hydroxyethyl)-1-piperazineethanesulfonic acid (EPPS) pH 8.5, protease and phosphatase inhibitors from Roche®) were added to the cell pellets and homogenized by 20 passes through a 21 gauge (1.25 in. long) needle to achieve a cell lysate with a protein concentration between 1-4 mg mL-1. A micro-BCA assay (Pierce™) was used to determine the final protein concentration in the cell lysate. 200 μg of protein for each sample were reduced and alkylated as described in Donovan et al., Elife 7:e38430 (2018).
Proteins were precipitated using methanol/chloroform. Four volumes of methanol were added to the cell lysate, followed by one volume of chloroform, and finally three volumes of water. The mixture was vortexed and centrifuged to separate the chloroform phase from the aqueous phase. The precipitated protein was washed with three volumes of methanol, centrifuged and the resulting washed precipitated protein was allowed to air dry. The precipitated protein was resuspended in 4 M Urea, 50 mM HEPES pH 7.4, followed by dilution to 1 M urea with the addition of 200 mM EPPS, pH 8. Proteins were first digested with LysC (1:50; enzyme:protein) for 12 hours at room temperature. The LysC digestion was diluted to 0.5 M Urea with 200 mM EPPS pH 8 followed by digestion with trypsin (1:50; enzyme:protein) for 6 hours at 37° C. Tandem mass tag (TMT) reagents (Thermo Fisher Scientific) were dissolved in anhydrous acetonitrile (ACN) according to manufacturer's instructions.
Anhydrous ACN was added to each peptide sample to a final concentration of 30% v/v, and labeling was induced with the addition of TMT reagent to each sample at a ratio of 1:4 peptide:TMT label. The 10-plex labeling reactions were performed for 1.5 hours at room temperature and the reaction quenched by the addition of hydroxylamine to a final concentration of 0.3% for 15 minutes at room temperature. The sample channels were combined at a 1:1:1:1:1:1:1:1:1:1:1 ratio, desalted using Cis solid phase extraction cartridges (Waters®) and analyzed by LC-MS for channel ratio comparison. Samples were then combined using the adjusted volumes determined in the channel ratio analysis and dried down in a speed vacuum. The combined sample was then resuspended in 1% formic acid, and acidified (pH 2-3) before being subjected to desalting with C18 SPE (Sep-Pak®, Waters®). Samples were then offline fractionated into 96 fractions by high pH reverse-phase HPLC (Agilent® LC1260) through an aeris peptide xb-c18 column (Phenomenex®) with mobile phase A containing 5% acetonitrile and 10 mM NH4HCO3 in LC-MS grade H2O, and mobile phase B containing 90% acetonitrile and 10 mM NH4HCO3 in LC-MS grade H2O (both pH 8.0). The 96 resulting fractions were then pooled in a non-continuous manner into 24 fractions and these fractions were used for subsequent mass spectrometry analysis.
Data were collected using an Orbitrap Fusion™ Lumos™ mass spectrometer (Thermo Fisher Scientific, San Jose, Calif., USA) coupled with a Proxeon EASY-nLC™ 1200 LC pump (Thermo Fisher Scientific). Peptides were separated on an EasySpray™ ES803 75 μm inner diameter microcapillary column (ThermoFisher Scientific).
Each analysis used an MS3-based TMT method as described previously. The data were acquired using a mass range of m z 340-1350, resolution 120,000, automatic gain control (AGC) target 1×10^6, maximum injection time 100 ms, dynamic exclusion of 120 seconds for the peptide measurements in the Orbitrap Fusion™ Lumos™ mass spectrometer. Data dependent MS2 spectra were acquired in the ion trap with a normalized collision energy (NCE) set at 55%, AGC target set to 1.5×10^5 and a maximum injection time of 150 ms. […]
Target sequence in this assay (O15379 whole entry): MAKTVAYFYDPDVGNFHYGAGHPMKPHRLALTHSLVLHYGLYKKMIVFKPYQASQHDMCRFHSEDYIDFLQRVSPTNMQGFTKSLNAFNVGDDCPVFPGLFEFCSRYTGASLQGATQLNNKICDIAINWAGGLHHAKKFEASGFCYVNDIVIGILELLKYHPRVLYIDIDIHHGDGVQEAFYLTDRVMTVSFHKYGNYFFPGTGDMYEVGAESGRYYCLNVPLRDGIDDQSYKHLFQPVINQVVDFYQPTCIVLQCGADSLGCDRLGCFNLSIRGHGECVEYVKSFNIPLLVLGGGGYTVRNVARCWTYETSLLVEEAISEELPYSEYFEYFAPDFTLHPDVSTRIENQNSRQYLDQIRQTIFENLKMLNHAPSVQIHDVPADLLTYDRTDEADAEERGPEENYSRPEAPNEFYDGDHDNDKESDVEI

[2] = system: other identified HDAC proteins; assay: as above; type: cell-based, human; conditions: 1 μM, 5 hours, vs DMSO
Protocol: as §1
Proteins were precipitated using methanol/chloroform. Four volumes of methanol were added to the cell lysate, followed by one volume of chloroform, and finally three volumes of water. The mixture was vortexed and centrifuged to separate the chloroform phase from the aqueous phase. […]
Anhydrous ACN was added to each peptide sample to a final concentration of 30% v/v, and labeling was induced with the addition of TMT reagent to each sample at a ratio of 1:4 peptide:TMT label. […] The sample channels were combined at a 1:1:1:1:1:1:1:1:1:1:1 ratio, desalted using Cis solid phase extraction cartridges (Waters®) and analyzed by LC-MS for channel ratio comparison. Samples were then combined using the adjusted volumes determined in the channel ratio analysis and dried down in a speed vacuum. […]

HDAC2 = target: T3, HDAC2 (Homo sapiens, UniProt Q92769); assay: HDAC enzymatic assay (Reaction Biology), fluorogenic substrate; type: biochemical
T3 construct: purchased Reaction Biology
Protocol: (§2) Compounds 2 and 9 were tested in an enzymatic assay from Reaction Biology® against HDAC isoforms.
(§3) Base Reaction buffer: 50 mM Tris-HCl, pH8.0, 137 mM NaCl, 2.7 mM KCl, and 1 mM MgCl2. Add fresh: 1 mg/ml BSA, 1% DMSO
(§4) Fluorogenic HDAC General Substrate (HDAC1, HDAC2, HDAC3, HDAC6, HDAC10, and HDAC11): 50 μM, Arg-His-Lys-Lys(Ac)-AMC
(§5) 1. Delivered 2X enzyme in wells of reaction plate except in the control wells and added buffer to control wells. 2. Delivered compounds in 100% DMSO into the enzyme mixture by Acoustic technology (Echo550; nanoliter range). Spin down and pre-incubation. 3. Delivered 2X Substrate Mixture (Fluorogenic HDAC Substrate and co-factor if applicable) in all reaction wells to initiate the reaction. Spin and shake. 4. Incubated for 30 min for Class 2A, 1 h for HDAC1, 2, 3, and 6, and 2 h for the rest of HDAC isoforms and SIRTs at 30° C. with seal.
(§6) 5. Added Developer with Trichostatin A (or Nicotinamide for SIRTs) to stop the reaction and to generate fluorescent color. 6. The fluorescence that was generated was detected with excitation (Ex) at […] and emission (Em) at 460 nM by the EnVision Multilabel Plate Reader (PerkinElmer®, Santa Clara, Calif., USA).
(§7) IC50 values were derived from a 10-dose response curve. As shown in Tables 1-2, the addition of a linker and CRBN targeting group altered the isoform selectivity of the SAHA-based degrader compounds.

HDAC1 = target: T4, HDAC1 (Homo sapiens, UniProt Q13547); assay: as above; type: biochemical
T4 construct: purchased Reaction Biology
Protocol: as §2, §3, §4, §5, §6, §7

HDAC8 = target: T5, HDAC8 (Homo sapiens, UniProt Q9BY41); assay: HDAC enzymatic assay (Reaction Biology), HDAC8 substrate; type: biochemical; set-up: purchased Reaction Biology
T5 sequence (Q9BY41 1-377): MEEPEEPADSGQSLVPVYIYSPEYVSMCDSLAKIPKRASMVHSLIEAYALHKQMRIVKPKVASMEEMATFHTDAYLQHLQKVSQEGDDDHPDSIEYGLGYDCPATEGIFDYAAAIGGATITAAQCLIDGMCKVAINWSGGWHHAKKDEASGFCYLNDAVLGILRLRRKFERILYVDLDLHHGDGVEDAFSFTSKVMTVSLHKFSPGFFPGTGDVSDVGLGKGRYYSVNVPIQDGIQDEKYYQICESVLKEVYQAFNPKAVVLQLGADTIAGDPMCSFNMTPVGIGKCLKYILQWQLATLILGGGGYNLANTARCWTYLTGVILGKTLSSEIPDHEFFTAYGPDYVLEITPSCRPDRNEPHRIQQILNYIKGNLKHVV
Protocol: as §2, §3
(HDAC8 only substrate: 50 μM, Arg-His-Lys(Ac)-Lys(Ac))-AMC
as §5, §6, §7

HDAC3 [3] = target: T2, HDAC3; assay: HDAC enzymatic assay (Reaction Biology), fluorogenic substrate; type: biochemical; set-up: purchased Reaction Biology
Protocol: as §2, §3, §4, §5, §6, §7
Target sequence in this assay (O15379 whole entry): as the sequence (O15379 whole entry) above
Target sequence in this assay (Q9Y618 395-489 partner limits assumed): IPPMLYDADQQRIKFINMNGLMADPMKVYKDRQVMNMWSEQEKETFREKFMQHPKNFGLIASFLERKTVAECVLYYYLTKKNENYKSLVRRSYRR

HDAC6 = target: T6, HDAC6 (Homo sapiens, UniProt Q9UBN7); assay: as above; type: biochemical; set-up: purchased Reaction Biology
T6 sequence (Q9UBN7 1-1215): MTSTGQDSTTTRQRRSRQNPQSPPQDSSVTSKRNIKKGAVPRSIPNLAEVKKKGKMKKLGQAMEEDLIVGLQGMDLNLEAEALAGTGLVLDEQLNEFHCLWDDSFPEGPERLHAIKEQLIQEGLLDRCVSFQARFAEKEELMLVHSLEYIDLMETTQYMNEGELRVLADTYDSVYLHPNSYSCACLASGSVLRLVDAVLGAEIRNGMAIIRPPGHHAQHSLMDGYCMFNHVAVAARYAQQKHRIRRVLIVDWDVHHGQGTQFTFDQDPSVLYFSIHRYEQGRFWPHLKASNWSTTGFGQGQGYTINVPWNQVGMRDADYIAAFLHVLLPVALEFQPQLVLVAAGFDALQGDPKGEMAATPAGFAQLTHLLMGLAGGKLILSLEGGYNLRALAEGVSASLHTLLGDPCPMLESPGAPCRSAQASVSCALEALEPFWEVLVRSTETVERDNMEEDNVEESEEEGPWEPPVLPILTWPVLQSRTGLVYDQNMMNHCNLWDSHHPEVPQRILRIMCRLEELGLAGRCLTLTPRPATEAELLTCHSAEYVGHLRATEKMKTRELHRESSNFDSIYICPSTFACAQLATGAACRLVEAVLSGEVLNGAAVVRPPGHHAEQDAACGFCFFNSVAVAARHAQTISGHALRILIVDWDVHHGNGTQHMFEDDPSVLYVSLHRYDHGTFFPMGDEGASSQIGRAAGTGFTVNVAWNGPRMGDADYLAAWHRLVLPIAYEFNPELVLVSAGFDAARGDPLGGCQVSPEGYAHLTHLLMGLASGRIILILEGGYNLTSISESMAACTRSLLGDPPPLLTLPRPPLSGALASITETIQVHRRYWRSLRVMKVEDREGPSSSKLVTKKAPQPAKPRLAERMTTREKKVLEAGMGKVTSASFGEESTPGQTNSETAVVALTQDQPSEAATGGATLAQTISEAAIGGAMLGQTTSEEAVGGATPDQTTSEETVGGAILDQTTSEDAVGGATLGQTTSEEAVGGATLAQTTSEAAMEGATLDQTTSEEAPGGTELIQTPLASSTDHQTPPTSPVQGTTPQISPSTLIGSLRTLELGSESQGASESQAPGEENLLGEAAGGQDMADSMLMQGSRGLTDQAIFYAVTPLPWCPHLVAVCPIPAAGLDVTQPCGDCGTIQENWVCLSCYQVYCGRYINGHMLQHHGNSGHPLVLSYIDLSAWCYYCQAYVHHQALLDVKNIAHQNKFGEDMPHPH
Protocol: as §2, §3, §4, §5, §6, §7

T1 sequence (P40337 whole entry, species assumed): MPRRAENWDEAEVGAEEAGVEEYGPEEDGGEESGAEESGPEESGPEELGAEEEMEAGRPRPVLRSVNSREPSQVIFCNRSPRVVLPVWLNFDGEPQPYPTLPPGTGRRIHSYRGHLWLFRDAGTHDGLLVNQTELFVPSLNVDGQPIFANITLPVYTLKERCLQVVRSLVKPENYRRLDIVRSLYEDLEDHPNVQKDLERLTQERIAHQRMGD
T3 sequence (Q92769 whole entry): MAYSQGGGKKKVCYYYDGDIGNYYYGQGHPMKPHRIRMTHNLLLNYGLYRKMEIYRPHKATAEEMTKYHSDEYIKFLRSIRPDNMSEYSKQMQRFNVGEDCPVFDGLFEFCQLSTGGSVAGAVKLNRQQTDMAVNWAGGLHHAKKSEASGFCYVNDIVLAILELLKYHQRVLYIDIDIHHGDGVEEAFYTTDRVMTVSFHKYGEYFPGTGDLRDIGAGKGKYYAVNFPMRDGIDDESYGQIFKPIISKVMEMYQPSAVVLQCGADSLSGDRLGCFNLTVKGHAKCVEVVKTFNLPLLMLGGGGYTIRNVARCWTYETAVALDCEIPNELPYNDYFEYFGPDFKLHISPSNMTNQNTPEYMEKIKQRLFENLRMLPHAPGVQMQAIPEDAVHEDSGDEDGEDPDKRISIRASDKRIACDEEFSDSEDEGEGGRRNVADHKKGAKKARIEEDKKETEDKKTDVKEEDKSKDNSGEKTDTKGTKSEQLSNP
T4 sequence (Q13547 whole entry): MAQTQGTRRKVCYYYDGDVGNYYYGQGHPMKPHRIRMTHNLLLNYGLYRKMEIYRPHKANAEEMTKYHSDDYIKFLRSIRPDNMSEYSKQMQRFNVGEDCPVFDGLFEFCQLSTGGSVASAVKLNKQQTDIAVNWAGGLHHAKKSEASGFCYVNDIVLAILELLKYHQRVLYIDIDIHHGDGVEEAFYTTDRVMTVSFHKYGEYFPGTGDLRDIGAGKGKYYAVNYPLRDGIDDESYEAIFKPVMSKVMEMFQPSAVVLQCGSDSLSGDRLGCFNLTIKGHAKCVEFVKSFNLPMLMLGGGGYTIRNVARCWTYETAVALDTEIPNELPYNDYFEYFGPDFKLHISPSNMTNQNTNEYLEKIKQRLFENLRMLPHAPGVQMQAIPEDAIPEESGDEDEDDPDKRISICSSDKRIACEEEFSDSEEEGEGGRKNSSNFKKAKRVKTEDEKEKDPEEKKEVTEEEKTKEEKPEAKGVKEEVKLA

Row | SMILES | IC50 (VHL) [µM] | cellular HDAC3 protein levels, change in relative protein abundance (heat map FIG. 2) (HDAC3 [1]; 1 μM, 5 hours, vs DMSO) | HDAC3 protein levels, relative protein abundance compared to DMSO control (HDAC3 [1]; scatter plots FIG. 1 and FIG. 3) | cellular protein levels of the other identified HDAC proteins (heat map FIG. 2) [2] | inhibition of HDAC2 deacetylase activity in vitro (in words) (HDAC2) | IC50 (HDAC2; 10-dose response curve, read-out: Compound IC50 (M), HDAC2) [M] | inhibition of HDAC1 deacetylase activity in vitro (in words) (HDAC1) | IC50 (HDAC1; 10-dose response curve, read-out: Compound IC50 (M), HDAC1) [M] | inhibition of HDAC8 deacetylase activity in vitro (in words) (HDAC8) | inhibition of HDAC3 deacetylase activity in vitro (in words) (HDAC3 [3]) | IC50 (HDAC3 [3]; 10-dose response curve, read-out: Compound IC50 (M), HDAC3) [M] | inhibition of HDAC6 activity in vitro (in words) (HDAC6)
1 | Cc1ncsc1-c1ccc([C@H](C)NC(=O)[C@@H]2C[C@@H](O)CN2C(=O)[C@@H](NC(=O)CCOCCN(CCc2c[nH]c3ccccc23)Cc2ccc(/C=C/C(=O)NO)cc2)C(C)(C)C)cc1 [Compound 1, (2S,4R)-1-((S)-2-(3-(2-((2-(1H-indol-3-yl)ethyl)(4-((E)-3-(hydroxyamino)-3-oxoprop-1-en-1-yl)benzyl)amino)ethoxy)propanamido)-3,3-dimethylbutanoyl)-4-hydroxy-N—((S)-1-(4-(4-methylthiazol-5-yl)phenyl)ethyl)pyrrolidine-2-carboxamide] | 16.9 | down-regulation | significant and selective reduction | did not affect | – | – | – | – | – | – | – | –
2 | Cc1ncsc1-c1ccc([C@H](C)NC(=O)[C@@H]2C[C@@H](O)CN2C(=O)[C@@H](NC(=O)CCOCCN(CCc2c[nH]c3ccccc23)Cc2ccc(/C=C/C(=O)Nc3ccccc3N)cc2)C(C)(C)C)cc1 [Compound 9, (2S,4R)-1-((S)-2-(3-(2-((2-(1H-indol-3-yl)ethyl)(4-((E)-3-((2-aminophenyl)amino)-3-oxoprop-1-en-1-yl)benzyl)amino)ethoxy)propanamido)-3,3-dimethylbutanoyl)-4-hydroxy-N—((S)-1-(4-(4-methylthiazol-5-yl)phenyl)ethyl)pyrrolidine-2-carboxamide] | 298 | – | – | – | moderate inhibition | 1.15e-05 | moderate inhibition | 9.5e-06 | did not inhibit | moderate inhibition | 1.12e-05 | did not inhibit
